From the NIST ThermoML archive (doi:10.1021/je2000217)

Assay: cn = amount concentration of the nth substance listed, in mol/dm3
Conditions: 100 kPa, Liquid; for viscosity: Capillary tube (Ostwald / Ubbelohde) method; for mass density: Vibrating tube method

CCCCCCCCCCCCCCCC[N+](C)(C)C.[Br-] [N,N,N-trimethyl-1-hexadecanaminium bromide] + O
Conditions | mass density, 298.15 K [kg/m3] | mass density, 308.15 K [kg/m3] | mass density, 318.15 K [kg/m3] | viscosity, 298.15 K [mPa·s] | viscosity, 308.15 K [mPa·s] | viscosity, 318.15 K [mPa·s]
c1 = 0.001 | 997.1 | 994.2 | 990.6 | 0.8978 | 0.7436 | 0.6173
c1 = 0.003 | 997.3 | 994.3 | 990.7 | 0.9087 | 0.7516 | 0.6217
c1 = 0.005 | 997.4 | 994.4 | 990.8 | 0.9213 | 0.7596 | 0.6349
